Experimental findings from patent US20240307382A1, “MODULATORS OF THE INTEGRATED STRESS PATHWAY” (Calico Life Sciences LLC, priority 2017, published 2024) are described below.

For this assay, the system named is HEK293T cells carrying the ATF4 luciferase reporter. Briefly: ATF4-Luc assay (ATF4 luciferase reporter, tunicamycin-treated cells). Format: cell-based. Conditions: Homo sapiens, HEK-293T, 1 μg/mL tunicamycin, 7 hours. As for the experimental part:
In order to test exemplary compounds of the invention in a cellular context, a stable VWMD cell line was first constructed. The ATF4 reporter was prepared by fusing the human full-length ATF4 5′-UTR (NCBI Accession No. BC022088.2) in front of the firefly luciferase (FLuc) coding sequence lacking the initiator methionine as described in Sidrauski et al (eLife 2013). The construct was used to produce recombinant retroviruses using standard methods and the resulting viral supermatant was used to transduce ITEK293T cells, which were then subsequently selected with puromycin to generate a stable cell line.
HTEK293T cells carrying the ATF4 luciferase reporter were plated on polylysine coated 384-well plates (Greiner Bio-one) at 30,000 cells per well. Cells were treated the next day with 1 μg/mL tunicamycin and 200 nM of a compound of Formula (I) for 7 hours. Luminescence was measured using One Glo (Promega) as specified by the manufacturer. Cells were maintained in DMEM with L-glutamine supplemented with 10% heat-inactivated FBS (Gibco) and Antibiotic-Antimycotic solution (Gibco).
Table 2 below summarizes the EC50 data obtained using the ATF4-Luc assay for exemplary compounds of the invention.
A general note: A reporter such as luciferase makes a cellular process visible.
Broadly, the EC50 is the midpoint of the concentration-response curve. For `O=C(COc1ccc(Cl)c(F)c1)NC12CCC(NC(=O)c3cc(-c4ccccc4)[nH]n3)(CC1)C[C@@H]2O` [Compound 1022, N-{(3S)-4-[2-(4-chloro-3-fluorophenoxy)acetamido]-3-hydroxybicyclo[2.2.2]octan-1-yl}-5-phenyl-1H-pyrazole-3-carboxamide], the concentration giving a half-maximal response (EC50) is < 0.05 µM.

As to `COCc1cncc(C(=O)NC23CCC(NC(=O)COc4ccc(Cl)c(Cl)c4)(CC2)CC3)c1` [Compound 992, N-{4-[2-(3,4-dichlorophenoxy)acetamido]bicyclo[2.2.2]octan-1-yl}-5-(methoxymethyl)pyridine-3-carboxamide], the half-maximal effective concentration (EC50) fell in the range of 0.05 to 0.25 µM.

For the molecule `CCc1cnc(C(=O)NC23CCC(NC(=O)COc4ccc(Cl)c(F)c4)(CC2)CC3)cn1` [Compound 979, N-{4-[2-(4-chloro-3-fluorophenoxy)acetamido]bicyclo[2.2.2]octan-1-yl}-5-ethylpyrazine-2-carboxamide], the EC50 was > 2 µM.

Consider `O=C(COc1cccc(Cl)c1)NC12CCC(NC(=O)c3cc(C(F)F)no3)(CC1)C[C@@H]2O` [Compound 1072, N-{(3S)-4-[2-(3-chlorophenoxy)acetamido]-3-hydroxybicyclo[2.2.2]octan-1-yl}-3-(difluoromethyl)-1,2-oxazole-5-carboxamide], for which the EC50 fell in the range of 0.05 to 0.25 µM.

With `O=C(COc1ccc(Cl)c(F)c1)NC12CCC(NC(=O)c3cc(C(F)F)no3)(CC1)CC2` [Compound 983, N-{4-[2-(4-chloro-3-fluorophenoxy)acetamido]bicyclo[2.2.2]octan-1-yl}-3-(difluoromethyl)-1,2-oxazole-5-carboxamide], the 50% effective concentration (EC50) was in the range of 0.25 to 1 µM.

Take `O=C(COc1ccc(Cl)c(Cl)c1)NC12CC(NC(=O)c3cnc(C(F)(F)F)o3)(C1)C2` [Compound 1043, N-{3-[2-(3,4-dichlorophenoxy)acetamido]bicyclo[1.1.1]pentan-1-yl}-2-(trifluoromethyl)-1,3-oxazole-5-carboxamide]: the concentration giving a half-maximal response (EC50) was in the range of 0.05 to 0.25 µM.

Regarding `COC(=O)c1ccc2nccc(NC34CC(NC(=O)COc5ccc(Cl)c(F)c5)(C3)C4)c2c1` [Compound 960, methyl 4-({3-[2-(4-chloro-3-fluorophenoxy)acetamido]bicyclo[1.1.1]pentan-1-yl}amino)quinoline-6-carboxylate], the concentration for a half-maximal effect (EC50) was < 0.05 µM.

Turning to `Cc1cc(C(=O)NC23CCC(NC(=O)COc4ccc(Cl)cc4)(CC2)[C@@H](O)C3)on1` [Compound 1016, N-{(3S)-4-[2-(4-chlorophenoxy)acetamido]-3-hydroxybicyclo[2.2.2]octan-1-yl}-3-methyl-1,2-oxazole-5-carboxamide], the EC50 is 0.05 to 0.25 µM.

Consider `O=C(COc1ccc2c(c1)OC(F)(F)O2)NC12CCC(NC(=O)c3cc(C(F)F)no3)(CC1)C[C@@H]2O` [Compound 1095, N-[(3S)-4-{2-[(2,2-difluoro-2H-1,3-benzodioxol-5-yl)oxy]acetamido}-3-hydroxybicyclo[2.2.2]octan-1-yl]-3-(difluoromethyl)-1,2-oxazole-5-carboxamide], for which the EC50 lay in the range of 0.05 to 0.25 µM.

As to `O=C(COc1ccc(Cl)c(F)c1)NC12CCC(NC(=O)c3ccc(C(F)F)nc3)(CC1)C[C@@H]2O` [Compound 988, N-{(3S)-4-[2-(4-chloro-3-fluorophenoxy)acetamido]-3-hydroxybicyclo[2.2.2]octan-1-yl}-6-(difluoromethyl)pyridine-3-carboxamide], the EC50 lay in the range of 0.05 to 0.25 µM.

On to `O=C(COc1ccc(Cl)c(Cl)c1)NC12CCC(NC(=O)c3ccc4cc(F)ccc4n3)(CC1)C[C@@H]2O` [Compound 999, N-{(3S)-4-[2-(3,4-dichlorophenoxy)acetamido]-3-hydroxybicyclo[2.2.2]octan-1-yl}-6-fluoroquinoline-2-carboxamide], for which the EC50 is < 0.05 µM.

For the molecule `O=C(COc1ccc(Cl)c(F)c1)NC12CCC(NC(=O)c3coc(-c4ccccc4)n3)(CC1)C[C@@H]2O` [Compound 1036, N-{(3S)-4-[2-(4-chloro-3-fluorophenoxy)acetamido]-3-hydroxybicyclo[2.2.2]octan-1-yl}-2-phenyl-1,3-oxazole-4-carboxamide], the EC50 was < 0.05 µM.

As for `O=C(COc1ccc(Cl)c(F)c1)NC12CCC(NC(=O)c3cnc(C(F)F)o3)(CC1)C[C@@H]2O` [Compound 1104, N-{(3S)-4-[2-(4-chloro-3-fluorophenoxy)acetamido]-3-hydroxybicyclo[2.2.2]octan-1-yl}-2-(difluoromethyl)-1,3-oxazole-5-carboxamide], the EC50 was < 0.05 µM.

With `O=C(COc1ccc(Cl)c(F)c1)NC12CCC(NC(=O)c3ccnc(CO)c3)(CC1)CC2` [Compound 977, N-{4-[2-(4-chloro-3-fluorophenoxy)acetamido]bicyclo[2.2.2]octan-1-yl}-2-(hydroxymethyl)pyridine-4-carboxamide], the EC50 was > 2 µM.

Regarding `O=C(COc1ccc(Cl)c(Cl)c1)NC12CCC(NC(=O)c3ccc(C(F)F)cn3)(CC1)CC2` [Compound 980, N-{4-[2-(3,4-dichlorophenoxy)acetamido]bicyclo[2.2.2]octan-1-yl}-5-(difluoromethyl)pyridine-2-carboxamide], the half-maximal effective concentration (EC50) fell in the range of 0.05 to 0.25 µM.

Turning to `CC(C)Oc1ccc(C(=O)NC23CCC(NC(=O)COc4ccc(Cl)c(Cl)c4)(CC2)[C@@H](O)C3)nc1` [Compound 1028, N-{(3S)-4-[2-(3,4-dichlorophenoxy)acetamido]-3-hydroxybicyclo[2.2.2]octan-1-yl}-5-[(propan-2-yl)oxy]pyridine-2-carboxamide], the EC50 was 0.05 to 0.25 µM.

For the molecule `O=C(COc1cc(F)c2cn[nH]c2c1)NC12CCC(NC(=O)c3cnc(C(F)F)cn3)(CC1)[C@@H](O)C2` [Compound 1080, 5-(difluoromethyl)-N-[(2S)-4-{2-[(4-fluoro-1H-indazol-6-yl)oxy]acetamido}-2-hydroxybicyclo[2.2.2]octan-1-yl]pyrazine-2-carboxamide], the EC50 fell in the range of 0.05 to 0.25 µM.

On to `Cc1csc(C(=O)NC23CCC(NC(=O)COc4ccc(Cl)cc4)(CC2)[C@@H](O)C3)n1` [Compound 1064, N-{(3S)-4-[2-(4-chlorophenoxy)acetamido]-3-hydroxybicyclo[2.2.2]octan-1-yl}-4-methyl-1,3-thiazole-2-carboxamide], for which the EC50 lay within 0.25 to 1 µM.

As for `O=C(COc1ccc(Cl)c(Cl)c1)NC12CCC(NC(=O)c3cnc4ccccc4n3)(CC1)C[C@@H]2O` [Compound 1008, N-{(3S)-4-[2-(3,4-dichlorophenoxy)acetamido]-3-hydroxybicyclo[2.2.2]octan-1-yl}quinoxaline-2-carboxamide], the EC50 was < 0.05 µM.

`CN(C)Cc1ccnc(C(=O)NC23CCC(NC(=O)COc4ccc(Cl)c(F)c4)(CC2)CC3)c1` [Compound 974, N-{4-[2-(4-chloro-3-fluorophenoxy)acetamido]bicyclo[2.2.2]octan-1-yl}-4-[(dimethylamino)methyl]pyridine-2-carboxamide]: the EC50 is > 2 µM.

Turning to `O=C(COc1ccc(Cl)c(Cl)c1)NC12CCC(NC(=O)c3coc(C(F)F)n3)(CC1)C[C@@H]2O` [Compound 1052, N-{(3S)-4-[2-(3,4-dichlorophenoxy)acetamido]-3-hydroxybicyclo[2.2.2]octan-1-yl}-2-(difluoromethyl)-1,3-oxazole-4-carboxamide], the EC50 was < 0.05 µM.

Turning to `COc1ncc(C(=O)NC23CCC(NC(=O)COc4ccc(C(F)(F)F)c(F)c4)(CC2)[C@@H](O)C3)cn1` [Compound 1074, N-[(3S)-4-{2-[3-fluoro-4-(trifluoromethyl)phenoxy]acetamido}-3-hydroxybicyclo[2.2.2]octan-1-yl]-2-methoxypyrimidine-5-carboxamide], the EC50 was 0.05 to 0.25 µM.

Take `O=C(COc1ccc(Cl)c(Cl)c1)NC12CCC(NC(=O)c3ccc(OC(F)(F)F)cn3)(CC1)C[C@@H]2O` [Compound 1024, N-{(3S)-4-[2-(3,4-dichlorophenoxy)acetamido]-3-hydroxybicyclo[2.2.2]octan-1-yl}-5-(trifluoromethoxy)pyridine-2-carboxamide]: the EC50 is < 0.05 µM.

In the case of `O=C(COc1ccc(Cl)c(F)c1)NC12CCC(NC(=O)c3cnc(C4CC4)o3)(CC1)CC2` [Compound 989, N-{4-[2-(4-chloro-3-fluorophenoxy)acetamido]bicyclo[2.2.2]octan-1-yl}-2-cyclopropyl-1,3-oxazole-5-carboxamide], the EC50 was in the range of 0.25 to 1 µM.

Consider `O=C(COc1ccc(Cl)c(F)c1)NC12CCC(NC(=O)c3cc(CO)ccn3)(CC1)CC2` [Compound 995, N-{4-[2-(4-chloro-3-fluorophenoxy)acetamido]bicyclo[2.2.2]octan-1-yl}-4-(hydroxymethyl)pyridine-2-carboxamide], for which the half-maximal effective concentration (EC50) is < 0.05 µM.

`Cc1ccc(OCC(=O)NC23CCC(NC(=O)c4cc(C(F)F)no4)(CC2)C[C@@H]3O)cc1C` [Compound 1097, 3-(difluoromethyl)-N-{(3S)-4-[2-(3,4-dimethylphenoxy)acetamido]-3-hydroxybicyclo[2.2.2]octan-1-yl}-1,2-oxazole-5-carboxamide]: the EC50 fell in the range of 0.05 to 0.25 µM.

As to `O=C(COc1ccc(Cl)c(Cl)c1)NC12CCC(NC(=O)c3cccc(C(F)(F)F)n3)(CC1)C[C@@H]2O` [Compound 1027, N-{(3S)-4-[2-(3,4-dichlorophenoxy)acetamido]-3-hydroxybicyclo[2.2.2]octan-1-yl}-6-(trifluoromethyl)pyridine-2-carboxamide], the EC50 is < 0.05 µM.

As to `O=C(COc1ccc(Cl)c(Cl)c1)NC12CCC(NC(=O)c3ccccn3)(CC1)C[C@@H]2O` [Compound 1026, N-{(3S)-4-[2-(3,4-dichlorophenoxy)acetamido]-3-hydroxybicyclo[2.2.2]octan-1-yl}pyridine-2-carboxamide], the EC50 was < 0.05 µM.
